In ChEMBL document CHEMBL1156502, “Stabilized immune modulatory RNA compounds as agonists of Toll-like receptors 7 and 8” (Proc Natl Acad Sci U S A, 2007):
Activity calls are given as the source filed them. No cut-off for these calls is given here.

What was measured:
PBMC [1] = experiment: Induction of IL12 secretion in human PBMC after 24 hrs by Luminex Multiplex assay; type: functional, cell-based
PBMC [2] = experiment: Induction of IFNalpha secretion in human PBMC after 24 hrs by Luminex Multiplex assay; type: functional, cell-based
PBMC [3] = experiment: Induction of IFN-gamma secretion in human PBMC after 24 hrs by Luminex Multiplex assay; type: functional, cell-based
Cynomolgus monkey [4] = experiment: Induction of immune response in cynomolgus monkey assessed as increase in number of peripheral blood neutrophils at 5 mg/kg, sc within 24 hrs; type: functional, organism-based; set-up: dose 5 mg/kg; details: Macaca fascicularis
Cynomolgus monkey [5] = experiment: Induction of immune response in cynomolgus monkey assessed as increase in number of peripheral blood monocytes at 5 mg/kg, sc within 24 hrs; type: functional, organism-based; set-up: dose 5 mg/kg; details: Macaca fascicularis
Cynomolgus monkey [6] = experiment: Increase in CD69 expression on CD3+ lymphocytes in cynomolgus monkey at 5 mg/kg, sc after 24 hrs by flow cytometry relative to control; type: functional, organism-based; set-up: dose 5 mg/kg; details: Macaca fascicularis
Cynomolgus monkey [7] = experiment: Increase in CD69 expression on CD16+ NK cells in cynomolgus monkey at 5 mg/kg, sc after 24 hrs by flow cytometry relative to control; type: functional, organism-based; set-up: dose 5 mg/kg; details: Macaca fascicularis
Cynomolgus monkey [8] = experiment: Increase in CD69 expression on CD14+ monocytes in cynomolgus monkey at 5 mg/kg, sc after 24 hrs by flow cytometry relative to control; type: functional, organism-based; set-up: dose 5 mg/kg; details: Macaca fascicularis
Cynomolgus monkey [9] = experiment: Elevation of IFNalpha in cynomolgus monkey plasma at 5 mg/kg, sc after 24 hrs; type: functional, organism-based; set-up: dose 5 mg/kg; details: Macaca fascicularis
Cynomolgus monkey [10] = experiment: Elevation of IP10 in cynomolgus monkey plasma at 5 mg/kg, sc after 24 hrs; type: functional, organism-based; set-up: dose 5 mg/kg; details: Macaca fascicularis
[11] = Stability in 1% human serum assessed as full length product after 10 mins; type: ADME, cell-free; details: read-out: Stability
[12] = molecular target: T1, Toll-like receptor 8 (Homo sapiens) (UniProt Q9NR97); experiment: Activation of human TLR8 expressed in HEK293 cells assessed as increase in NF-kappaB activation at 100 ug/ml by SEAP assay; type: cell-based
T1 sequence (whole entry): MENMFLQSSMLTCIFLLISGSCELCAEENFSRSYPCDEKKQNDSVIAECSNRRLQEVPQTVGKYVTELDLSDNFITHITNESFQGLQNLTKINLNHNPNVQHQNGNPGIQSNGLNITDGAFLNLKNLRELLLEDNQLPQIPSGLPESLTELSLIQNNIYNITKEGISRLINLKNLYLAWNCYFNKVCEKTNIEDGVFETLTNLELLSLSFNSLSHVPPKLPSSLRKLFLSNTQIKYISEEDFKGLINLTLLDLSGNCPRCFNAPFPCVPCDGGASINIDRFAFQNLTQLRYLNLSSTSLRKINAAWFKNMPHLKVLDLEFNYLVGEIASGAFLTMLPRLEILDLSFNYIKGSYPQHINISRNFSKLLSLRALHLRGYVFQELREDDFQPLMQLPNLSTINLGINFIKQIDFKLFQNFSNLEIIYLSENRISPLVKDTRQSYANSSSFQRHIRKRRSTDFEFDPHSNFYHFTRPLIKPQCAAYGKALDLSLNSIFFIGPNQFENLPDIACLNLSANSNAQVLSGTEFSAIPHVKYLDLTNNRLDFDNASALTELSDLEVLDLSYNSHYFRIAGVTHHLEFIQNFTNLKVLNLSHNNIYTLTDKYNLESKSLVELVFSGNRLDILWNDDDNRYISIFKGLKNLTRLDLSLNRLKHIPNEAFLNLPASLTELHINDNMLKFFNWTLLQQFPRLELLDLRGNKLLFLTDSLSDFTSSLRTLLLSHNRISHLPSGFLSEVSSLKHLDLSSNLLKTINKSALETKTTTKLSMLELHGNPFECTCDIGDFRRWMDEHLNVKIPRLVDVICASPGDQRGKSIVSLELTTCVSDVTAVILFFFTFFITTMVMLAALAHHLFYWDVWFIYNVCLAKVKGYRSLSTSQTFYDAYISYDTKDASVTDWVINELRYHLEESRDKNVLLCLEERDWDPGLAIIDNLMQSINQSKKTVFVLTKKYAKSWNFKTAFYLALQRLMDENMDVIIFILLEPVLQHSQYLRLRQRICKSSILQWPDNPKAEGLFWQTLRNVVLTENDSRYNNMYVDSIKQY

[13] = molecular target: T2, Toll-like receptor 7 (Homo sapiens) (UniProt Q9NYK1); experiment: Activation of human TLR7 expressed in HEK293 cells assessed as increase in NF-kappaB activation at 100 ug/ml by SEAP assay; type: cell-based
T2 sequence (whole entry): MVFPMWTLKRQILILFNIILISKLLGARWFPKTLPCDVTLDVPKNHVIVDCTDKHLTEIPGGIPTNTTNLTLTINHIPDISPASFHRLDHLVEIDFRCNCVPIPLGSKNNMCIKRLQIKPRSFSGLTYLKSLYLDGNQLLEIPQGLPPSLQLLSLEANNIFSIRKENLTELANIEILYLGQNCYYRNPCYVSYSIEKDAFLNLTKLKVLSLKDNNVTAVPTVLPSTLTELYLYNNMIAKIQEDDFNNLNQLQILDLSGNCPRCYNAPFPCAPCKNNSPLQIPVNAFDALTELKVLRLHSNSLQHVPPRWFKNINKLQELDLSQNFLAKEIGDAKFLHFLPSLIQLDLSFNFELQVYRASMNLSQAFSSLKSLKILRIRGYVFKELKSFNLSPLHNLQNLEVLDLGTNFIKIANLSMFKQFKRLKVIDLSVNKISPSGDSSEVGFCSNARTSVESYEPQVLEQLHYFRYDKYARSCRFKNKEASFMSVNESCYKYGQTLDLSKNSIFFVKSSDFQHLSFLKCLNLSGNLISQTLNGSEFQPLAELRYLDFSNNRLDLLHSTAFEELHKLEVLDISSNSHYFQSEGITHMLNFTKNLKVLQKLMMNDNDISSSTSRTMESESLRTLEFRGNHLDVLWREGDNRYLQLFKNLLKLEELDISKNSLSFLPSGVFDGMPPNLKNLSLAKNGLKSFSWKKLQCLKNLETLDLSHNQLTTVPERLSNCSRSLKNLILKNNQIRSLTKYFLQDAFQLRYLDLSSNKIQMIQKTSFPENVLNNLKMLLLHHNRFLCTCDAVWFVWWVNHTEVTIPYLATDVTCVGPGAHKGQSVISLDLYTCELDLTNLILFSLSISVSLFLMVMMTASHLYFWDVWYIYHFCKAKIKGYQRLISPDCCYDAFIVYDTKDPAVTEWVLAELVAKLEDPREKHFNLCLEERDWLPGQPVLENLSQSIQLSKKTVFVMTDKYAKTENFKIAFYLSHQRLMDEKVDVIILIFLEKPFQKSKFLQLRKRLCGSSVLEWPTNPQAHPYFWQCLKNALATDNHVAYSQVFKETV

PBMC [14] = experiment: Induction of IL1-beta secretion in human PBMC after 24 hrs by Luminex Multiplex assay; type: functional, cell-based
PBMC [15] = experiment: Induction of IL2R secretion in human PBMC after 24 hrs by Luminex Multiplex assay; type: functional, cell-based
PBMC [16] = experiment: Induction of IL10 secretion in human PBMC after 24 hrs by Luminex Multiplex assay; type: functional, cell-based

For `Nc1ccn([C@@H]2O[C@H](COP(O)(=S)O[C@H]3[C@@H](O)[C@H](n4cnc5c(=O)[nH]c(N)nc54)O[C@@H]3COP(O)(=S)O[C@H]3[C@@H](O)[C@H](n4ccc(=O)[nH]c4=O)O[C@@H]3COCCCO)[C@@H](OP(O)(=S)OC[C@H]3O[C@@H](n4ccc(=O)[nH]c4=O)[C@H](O)[C@@H]3OP(O)(=S)OC[C@H]3O[C@@H](n4cnc5c(=O)[nH]c(N)nc54)[C@H](O)[C@@H]3OP(O)(=S)OC[C@H]3O[C@@H](n4ccc(N)nc4=O)[C@H](O)[C@@H]3OP(O)(=S)OC[C@H]3O[C@@H](n4ccc(=O)[nH]c4=O)[C@H](O)[C@@H]3OP(O)(=S)OC[C@H]3O[C@@H](n4ccc(=O)[nH]c4=O)[C@H](O)[C@@H]3OP(O)(=S)OC[C@H]3O[C@@H](n4cnc5c(=O)[nH]c(N)nc54)[C@H](O)[C@@H]3OP(O)(=S)OC[C@H]3O[C@@H](n4ccc(=O)[nH]c4=O)[C@H](O)[C@@H]3OP(O)(=S)OC[C@H]3O[C@@H](n4cnc5c(=O)[nH]c(N)nc54)[C@H](O)[C@@H]3OP(O)(=S)OCC(O)COP(O)(=S)O[C@H]3[C@@H](O)[C@H](n4cnc5c(=O)[nH]c(N)nc54)O[C@@H]3COP(O)(=S)O[C@H]3[C@@H](O)[C@H](n4ccc(=O)[nH]c4=O)O[C@@H]3COP(O)(=S)O[C@H]3[C@@H](O)[C@H](n4cnc5c(=O)[nH]c(N)nc54)O[C@@H]3COP(O)(=S)O[C@H]3[C@@H](O)[C@H](n4ccc(=O)[nH]c4=O)O[C@@H]3COP(O)(=S)O[C@H]3[C@@H](O)[C@H](n4ccc(=O)[nH]c4=O)O[C@@H]3COP(O)(=S)O[C@H]3[C@@H](O)[C@H](n4ccc(N)nc4=O)O[C@@H]3COP(O)(=S)O[C@H]3[C@@H](O)[C@H](n4cnc5c(=O)[nH]c(N)nc54)O[C@@H]3COP(O)(=S)O[C@H]3[C@@H](O)[C@H](n4ccc(=O)[nH]c4=O)O[C@@H]3COP(O)(=S)O[C@H]3[C@@H](O)[C@H](n4ccc(N)nc4=O)O[C@@H]3COP(O)(=S)O[C@H]3[C@@H](O)[C@H](n4cnc5c(=O)[nH]c(N)nc54)O[C@@H]3COP(O)(=S)O[C@H]3[C@@H](O)[C@H](n4ccc(=O)[nH]c4=O)O[C@@H]3COCCCO)[C@H]2O)c(=O)n1` (stereo partly specified), the Activity (PBMC [1]) was “Dose-dependent effect”, the Activity (PBMC [2]) was “Dose-dependent effect” and the Activity (PBMC [3]) was “Dose-dependent effect”. The Activity (Cynomolgus monkey [4]) was “Active”, the Activity (Cynomolgus monkey [5]) was “Active” and the Activity (Cynomolgus monkey [6]) was “Active”. The Activity (Cynomolgus monkey [7]) was “Active”, the Activity (Cynomolgus monkey [8]) was “Active” and the Activity (Cynomolgus monkey [9]) was “Active”. The Activity (Cynomolgus monkey [10]) was “Active”, the remaining at 10 min [11] was 78% and the Activity [12] was “Active”. The Activity [13] was “inactive”, the Activity (PBMC [14]) was “Dose-dependent effect” and the Activity (PBMC [15]) was “Dose-dependent effect”. For the same molecule, the Activity (PBMC [16]) was “Dose-dependent effect”.
